Experimental data taken from patent US6355799B1, “Substituted benzene compounds, process for their preparation, and herbicidal and defoliant compositions containing them” (ISK Americas Incorporated, priority 1997, dated 2002).

Columns and labels:
Format in all cases: in vivo
[1] = test system: redroot pigweed (Amaranthus retroflexus, AMARE); test: Pre-emerge test, greenhouse herbicide activity screening; conditions: for Pre-emerge Herbicidal Activity AMARE: phytotoxicity rating 0-100 at 14 days after application; for Pre-emerge herbicidal activity, phytotoxicity rating AMARE: rating scale 0-100, 14 days after application
How it was run: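 Herbicidal damage is scored 0 (none) to 100 (complete plant death) two weeks after a simulated field spray. Rates span 15–1000 g ai/ha, delivered in acetone at 187 l/ha. For post-emergence treatments, plants have 2–3 leaves and the spray carries 0.25% v/v non-ionic surfactant.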

[2] = test system: field corn (Zea mays L., var. Dekalb 535, CORN); test: Pre-emerge test, crop safety; conditions: for Pre-emerge Herbicidal Activity CORN: crop damage, phytotoxicity rating 0-100 at 14 days after application; for Pre-emerge phytotoxicity rating, crop damage CORN: rating scale 0-100, 14 days after application
How it was run: (§1)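 Fourteen days after spraying, crop and weed injury was graded visually from 0, no effect, to 100, every plant dead. Test substances were dissolved in acetone and applied at 15–1000 g ai/ha with a flat-fan nozzle. Application was either pre-emergence, one day after sowing, or post-emergence at the 2–3 leaf stage.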

[3] = test system: upland rice (Oryza sp., var. Tebonnet, RICE); test: Pre-emerge test, crop safety; conditions: for Pre-emerge Herbicidal Activity RICE: crop damage, phytotoxicity rating 0-100 at 14 days after application; for Pre-emerge phytotoxicity rating, crop damage RICE: rating scale 0-100, 14 days after application
How it was run: as §1

[4] = test system: field corn (Zea mays L., var. Dekalb 535, CORN); test: Post-emerge test, crop safety; conditions: post-emerge, crop damage rating 0-100 at 14 days after application
How it was run: (§2)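 Applied at 15–1000 g ai/ha from acetone in 187 l/ha spray volume. Post-emergence applications included 0.25% v/v non-ionic surfactant and reached plants sown 8–21 days before. Pre-emergence applications were incorporated by surface watering. Efficacy or crop damage was rated on a 0–100 scale after 14 days.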

[5] = test system: upland rice (Oryza sp., var. Tebonnet, RICE); test: Post-emerge test, crop safety; conditions: post-emerge, crop damage rating 0-100 at 14 days after application
How it was run: as §2

[6] = test system: lambsquarters (Chenopodium album, CHEAL); test: Post-emerge test, greenhouse herbicide activity screening; conditions: post-emerge, phytotoxicity rating 0-100 at 14 days after application
How it was run: (§3)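 Compounds in acetone were track-sprayed at 15–1000 g ai/ha: pre-emergence onto soil sown the previous day, then top-watered to incorporate and later bottom-watered; post-emergence onto 2–3 leaf plants with 0.25% v/v surfactant, bottom-watered only. Ratings on a 0–100 phytotoxicity scale were taken at day 14.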

[7] = test system: sicklepod (Cassia obtusifolia, CASOB); test: as above; conditions: post-emerge, phytotoxicity rating 0-100 at 14 days after application
How it was run: as §3

[8] = test system: large crabgrass (Digitaria sanguinalis, DIGSA); test: as above; conditions: post-emerge, phytotoxicity rating 0-100 at 14 days after application
How it was run: as §3

[9] = test system: green foxtail (Setaria viridis, SETVI); test: as above; conditions: post-emerge, phytotoxicity rating 0-100 at 14 days after application
How it was run: as §3

[10] = test system: velvetleaf (Abutilon theophrasti, ABUTH); test: as above; conditions: post-emerge, phytotoxicity rating 0-100 at 14 days after application
How it was run: as §3

[11] = test system: barnyardgrass (Echinochloa crus-galli, ECHCG); test: as above; conditions: post-emerge, phytotoxicity rating 0-100 at 14 days after application
How it was run: as §3

[12] = test system: johnsongrass (Sorghum halepense, SORHA); test: as above; conditions: post-emerge, phytotoxicity rating 0-100 at 14 days after application
How it was run: as §3

[13] = test system: redroot pigweed (Amaranthus retroflexus, AMARE); test: as above; conditions: post-emerge, phytotoxicity rating 0-100 at 14 days after application
How it was run: as §3

[14] = test system: ivyleaf morningglory (Ipomoea hederacea, IPOHE); test: as above; conditions: post-emerge, phytotoxicity rating 0-100 at 14 days after application
How it was run: as §3

[15] = test system: lambsquarters (Chenopodium album, CHEAL); test: Pre-emerge test, greenhouse herbicide activity screening; conditions: for Pre-emerge Herbicidal Activity CHEAL: phytotoxicity rating 0-100 at 14 days after application; for Pre-emerge herbicidal activity, phytotoxicity rating CHEAL: rating scale 0-100, 14 days after application
How it was run: as §2

[16] = test system: sicklepod (Cassia obtusifolia, CASOB); test: as above; conditions: for Pre-emerge Herbicidal Activity CASOB: phytotoxicity rating 0-100 at 14 days after application; for Pre-emerge herbicidal activity, phytotoxicity rating CASOB: rating scale 0-100, 14 days after application
How it was run: as §2

[17] = test system: large crabgrass (Digitaria sanguinalis, DIGSA); test: as above; conditions: for Pre-emerge Herbicidal Activity DIGSA: phytotoxicity rating 0-100 at 14 days after application; for Pre-emerge herbicidal activity, phytotoxicity rating DIGSA: rating scale 0-100, 14 days after application
How it was run: as §2

[18] = test system: green foxtail (Setaria viridis, SETVI); test: as above; conditions: for Pre-emerge Herbicidal Activity SETVI: phytotoxicity rating 0-100 at 14 days after application; for Pre-emerge herbicidal activity, phytotoxicity rating SETVI: rating scale 0-100, 14 days after application
How it was run: as §2

[19] = test system: velvetleaf (Abutilon theophrasti, ABUTH); test: as above; conditions: for Pre-emerge Herbicidal Activity ABUTH: phytotoxicity rating 0-100 at 14 days after application; for Pre-emerge herbicidal activity, phytotoxicity rating ABUTH: rating scale 0-100, 14 days after application
How it was run: as §2

[20] = test system: barnyardgrass (Echinochloa crus-galli, ECHCG); test: as above; conditions: for Pre-emerge Herbicidal Activity ECHCG: phytotoxicity rating 0-100 at 14 days after application; for Pre-emerge herbicidal activity, phytotoxicity rating ECHCG: rating scale 0-100, 14 days after application
How it was run: as §2

[21] = test system: johnsongrass (Sorghum halepense, SORHA); test: as above; conditions: for Pre-emerge Herbicidal Activity SORHA: phytotoxicity rating 0-100 at 14 days after application; for Pre-emerge herbicidal activity, phytotoxicity rating SORHA: rating scale 0-100, 14 days after application
How it was run: as §2

[22] = test system: ivyleaf morningglory (Ipomoea hederacea, IPOHE); test: as above; conditions: for Pre-emerge Herbicidal Activity IPOHE: phytotoxicity rating 0-100 at 14 days after application; for Pre-emerge herbicidal activity, phytotoxicity rating IPOHE: rating scale 0-100, 14 days after application
How it was run: as §2

Compound: O=C(Nc1cc(Cl)ccc1-n1c(=O)n2n(c1=O)CCCC2)c1ccc2ccccc2c1 [9-19]
- Pre-emerge Herbicidal Activity AMARE ([1]; rate 63 g ai/ha): 100
- Pre-emerge Herbicidal Activity AMARE ([1]; rate 250 g ai/ha): 100
- Pre-emerge Herbicidal Activity CORN ([2]; rate 63 g ai/ha): 0
- Pre-emerge Herbicidal Activity CORN ([2]; rate 250 g ai/ha): 0
- Pre-emerge Herbicidal Activity RICE ([3]; rate 63 g ai/ha): 30
- Pre-emerge Herbicidal Activity RICE ([3]; rate 250 g ai/ha): 50
- Post-emerge Herbicidal Activity CORN ([4]; 63 g ai/ha): 10
- Post-emerge Herbicidal Activity CORN ([4]; 250 g ai/ha): 10
- Post-emerge Herbicidal Activity RICE ([5]; 63 g ai/ha): 15
- Post-emerge Herbicidal Activity RICE ([5]; 250 g ai/ha): 25
- Post-emerge Herbicidal Activity CHEAL ([6]; 63 g ai/ha): 100
- Post-emerge Herbicidal Activity CHEAL ([6]; 250 g ai/ha): 100
- Post-emerge Herbicidal Activity CASOB ([7]; 63 g ai/ha): 80
- Post-emerge Herbicidal Activity CASOB ([7]; 250 g ai/ha): 95
- Post-emerge Herbicidal Activity DIGSA ([8]; 63 g ai/ha): 0
- Post-emerge Herbicidal Activity DIGSA ([8]; 250 g ai/ha): 10
- Post-emerge Herbicidal Activity SETVI ([9]; 63 g ai/ha): 10
- Post-emerge Herbicidal Activity SETVI ([9]; 250 g ai/ha): 20
- Post-emerge Herbicidal Activity ABUTH ([10]; 63 g ai/ha): 100
- Post-emerge Herbicidal Activity ABUTH ([10]; 250 g ai/ha): 100
- Post-emerge Herbicidal Activity ECHCG ([11]; 63 g ai/ha): 0
- Post-emerge Herbicidal Activity ECHCG ([11]; 250 g ai/ha): 10
- Post-emerge Herbicidal Activity SORHA ([12]; 63 g ai/ha): 0
- Post-emerge Herbicidal Activity SORHA ([12]; 250 g ai/ha): 0
- Post-emerge Herbicidal Activity AMARE ([13]; 63 g ai/ha): 80
- Post-emerge Herbicidal Activity AMARE ([13]; 250 g ai/ha): 98
- Post-emerge Herbicidal Activity IPOHE ([14]; 63 g ai/ha): 75
- Post-emerge Herbicidal Activity IPOHE ([14]; 250 g ai/ha): 90
- Pre-emerge Herbicidal Activity CHEAL ([15]; rate 63 g ai/ha): 100
- Pre-emerge Herbicidal Activity CHEAL ([15]; rate 250 g ai/ha): 100
- Pre-emerge Herbicidal Activity CASOB ([16]; rate 63 g ai/ha): 0
- Pre-emerge Herbicidal Activity CASOB ([16]; rate 250 g ai/ha): 20
- Pre-emerge Herbicidal Activity DIGSA ([17]; rate 63 g ai/ha): 0
- Pre-emerge Herbicidal Activity DIGSA ([17]; rate 250 g ai/ha): 80
- Pre-emerge Herbicidal Activity SETVI ([18]; rate 63 g ai/ha): 0
- Pre-emerge Herbicidal Activity SETVI ([18]; rate 250 g ai/ha): 60
- Pre-emerge Herbicidal Activity ABUTH ([19]; rate 63 g ai/ha): 100
- Pre-emerge Herbicidal Activity ABUTH ([19]; rate 250 g ai/ha): 100
- Pre-emerge Herbicidal Activity ECHCG ([20]; rate 63 g ai/ha): 0
- Pre-emerge Herbicidal Activity ECHCG ([20]; rate 250 g ai/ha): 0
- Pre-emerge Herbicidal Activity SORHA ([21]; rate 63 g ai/ha): 0
- Pre-emerge Herbicidal Activity SORHA ([21]; rate 250 g ai/ha): 20
- Pre-emerge Herbicidal Activity IPOHE ([22]; rate 63 g ai/ha): 30
- Pre-emerge Herbicidal Activity IPOHE ([22]; rate 250 g ai/ha): 0

Compound: O=C(Nc1cc(Cl)ccc1N1C(=O)C2CCCCN2C1=O)c1ccc2ccccc2c1 (stereo not shown) [12-8]
- Pre-emerge herbicidal activity, phytotoxicity rating AMARE ([1]; 63 g ai/ha): 100
- Pre-emerge herbicidal activity, phytotoxicity rating AMARE ([1]; 250 g ai/ha): 100
- Pre-emerge phytotoxicity rating, crop damage CORN ([2]; 63 g ai/ha): 0
- Pre-emerge phytotoxicity rating, crop damage CORN ([2]; 250 g ai/ha): 0
- Pre-emerge phytotoxicity rating, crop damage RICE ([3]; 63 g ai/ha): 30
- Pre-emerge phytotoxicity rating, crop damage RICE ([3]; 250 g ai/ha): 40
- Post-emerge Herbicidal Activity CORN ([4]; 63 g ai/ha): 5
- Post-emerge Herbicidal Activity CORN ([4]; 250 g ai/ha): 10
- Post-emerge Herbicidal Activity RICE ([5]; 63 g ai/ha): 20
- Post-emerge Herbicidal Activity RICE ([5]; 250 g ai/ha): 15
- Post-emerge Herbicidal Activity CHEAL ([6]; 63 g ai/ha): 95
- Post-emerge Herbicidal Activity CHEAL ([6]; 250 g ai/ha): 99
- Post-emerge Herbicidal Activity CASOB ([7]; 63 g ai/ha): 50
- Post-emerge Herbicidal Activity CASOB ([7]; 250 g ai/ha): 70
- Post-emerge Herbicidal Activity DIGSA ([8]; 63 g ai/ha): 10
- Post-emerge Herbicidal Activity DIGSA ([8]; 250 g ai/ha): 0
- Post-emerge Herbicidal Activity SETVI ([9]; 63 g ai/ha): 20
- Post-emerge Herbicidal Activity SETVI ([9]; 250 g ai/ha): 25
- Post-emerge Herbicidal Activity ABUTH ([10]; 63 g ai/ha): 100
- Post-emerge Herbicidal Activity ABUTH ([10]; 250 g ai/ha): 100
- Post-emerge Herbicidal Activity ECHCG ([11]; 63 g ai/ha): 10
- Post-emerge Herbicidal Activity ECHCG ([11]; 250 g ai/ha): 10
- Post-emerge Herbicidal Activity SORHA ([12]; 63 g ai/ha): 0
- Post-emerge Herbicidal Activity SORHA ([12]; 250 g ai/ha): 10
- Post-emerge Herbicidal Activity AMARE ([13]; 63 g ai/ha): 80
- Post-emerge Herbicidal Activity AMARE ([13]; 250 g ai/ha): 90
- Post-emerge Herbicidal Activity IPOHE ([14]; 63 g ai/ha): 90
- Post-emerge Herbicidal Activity IPOHE ([14]; 250 g ai/ha): 80
- Pre-emerge herbicidal activity, phytotoxicity rating CHEAL ([15]; 63 g ai/ha): 100
- Pre-emerge herbicidal activity, phytotoxicity rating CHEAL ([15]; 250 g ai/ha): 100
- Pre-emerge herbicidal activity, phytotoxicity rating CASOB ([16]; 63 g ai/ha): 0
- Pre-emerge herbicidal activity, phytotoxicity rating CASOB ([16]; 250 g ai/ha): 20
- Pre-emerge herbicidal activity, phytotoxicity rating DIGSA ([17]; 63 g ai/ha): 50
- Pre-emerge herbicidal activity, phytotoxicity rating DIGSA ([17]; 250 g ai/ha): 100
- Pre-emerge herbicidal activity, phytotoxicity rating SETVI ([18]; 63 g ai/ha): 60
- Pre-emerge herbicidal activity, phytotoxicity rating SETVI ([18]; 250 g ai/ha): 100
- Pre-emerge herbicidal activity, phytotoxicity rating ABUTH ([19]; 63 g ai/ha): 0
- Pre-emerge herbicidal activity, phytotoxicity rating ABUTH ([19]; 250 g ai/ha): 100
- Pre-emerge herbicidal activity, phytotoxicity rating ECHCG ([20]; 63 g ai/ha): 0
- Pre-emerge herbicidal activity, phytotoxicity rating ECHCG ([20]; 250 g ai/ha): 40
- Pre-emerge herbicidal activity, phytotoxicity rating SORHA ([21]; 63 g ai/ha): 10
- Pre-emerge herbicidal activity, phytotoxicity rating SORHA ([21]; 250 g ai/ha): 40
- Pre-emerge herbicidal activity, phytotoxicity rating IPOHE ([22]; 63 g ai/ha): 0
- Pre-emerge herbicidal activity, phytotoxicity rating IPOHE ([22]; 250 g ai/ha): 40
